Test results reported in patent US8216825B2, “Aquaculture biocide methods and compositions” (priority 2010, dated 2012).
“Also recorded” adds a separate entry of the source.

Key:
Chlorella sp. [1] = test: 12-day mason jar test, algal optical density at 680 nm, algae without rotifers (Example 1); type: cell-based; details: A+M: 30 mg/L methoprene, no rotifers
Protocol: (§1) Algae were expanded into 500 ml of 20% artificial seawater in mason jars and subjected to five treatment conditions. Five replicates were conducted for each of the conditions. The test conditions were: control (algae only), rotifers without methoprene (A+R), methoprene without rotifers (A+M) methoprene with rotifers (A+R+M), and double concentration methoprene with rotifers (A+R+2M). In the mason jars containing solutions “with rotifers”, 9 mL of media were replaced with rotifer solution. In the A+M and A+R+M groups, the solution was modified to give a methoprene concentration of 30 mg/L. In the A+R+2M group, the solution was modified to give a methoprene concentration of 62 mg/L.
(§2) During the test period, algae was kept on a 12-hour light: 12-hour dark photoperiod at 26.8° C. The pH and specific gravity of the 20% artificial seawater solution were measured to be 8.92±0.02 and 1.013 respectively.
(§3) Optical density measurements were taken on days 5, 6, and 12 after inoculation. Each jar was first agitated either by gently rocking back and forth until minimal algal residue could be seen on the bottom. Occasionally, a sterile tube or pipette was employed to scrape some residue into the solution. Once minimal algal residue remained in the jar, a 5-mL sample of solution was pipetted out with a sterile pipette. The sample's optical density was read with a spectrometer at 680 nm. Control and A+R sample readings were blanked with a solution of 10 mL modified Bristol medium per 40 mL 20% artificial seawater. A+M and A+R+M sample readings were blanked with a solution of 10 mL modified Bristol medium per 38.5 mL 20% artificial seawater and 1.5 mL methoprene-seawater solution. A+R+2M sample readings were blanked with a solution of 10 mL modified Bristol medium per 36.9 mL 20% artificial seawater and 3.1 mL methoprene-seawater solution. Optical density readings were taken in absorbance units.

Chlorella sp. [2] = test: Biocide toxicity tests in test tubes, algal optical density at 680 nm (Example 5); type: cell-based; details: for mean optical density on day 12 compared with control group: 20 mg/L methoprene, 2% acetone respectively, P>0.05; for mean optical density on day 12 compared with control group / inhibition of algal growth: 2.0 mg/L resmethrin; for inhibition of algal growth: applied without rotifers, experimental concentrations 20 mg/L methoprene, 2% acetone; for mean optical density at day 12 compared with control: printed P>0.5
Protocol: 27 ml of Chlorella in Alga-Gro Freshwater Medium were added to 300 ml modified Bristol medium and allowed to grow without agitation for 30 hours. The 327 ml of algal solution were then expanded into a total of 700 ml modified Bristol medium and allowed to grow without agitation. After 42 hours, the 700 ml of algal solution were split up into 60 individual test tubes. Each test tube received 10 ml of algal solution, along with 1 ml of rotifer solution (or media) and 4 ml of reagent solution, for a total of 15 ml.
An initial Brachionus sp. population of about 30 individuals was cultured without agitation in one 60-ml jar for 3 days. Then, 1 ml of rotifer solution was pipetted into each of the 40 test tubes designated for rotifer toxicity assessment.
The 60 test tubes represented 12 groups, each with five replicates. The test group names and conditions are as follows (Table 4). The group “20M−R” contained algae, 20 mg/l of methoprene, and no rotifers. The group “20M+R” contained algae, 20 mg/l of methoprene, and rotifers. The group “5M+R” contained algae, 5 mg/l of methoprene, and rotifers. The group “5M+A+R” contained 5 mg/l of methoprene, 2% acetone (v/v), and rotifers. The group “2R−R” contained algae, 2.0 mg/I of resmethrin, and no rotifers. The group “2R+R” contained algae, 2.0 mg/l of resmethrin, and rotifers. The group “5R+R” contained algae, 0.5 mg/l of resmethrin, and rotifers. The group “5R+A+R” contained 0.5 mg/l of resmethrin, 2% acetone, rotifers. The group “A−R” contained algae, 2% acetone and no rotifers. The group “A+R” contained algae, 2% acetone and rotifers. The group “R” contained algae and rotifers without any extra reagents. The group “C” contained algae in media only.
Organisms were cultured and assessed for a test period of 12 days. During the test period, organisms were subjected to agitation at 60 rpm and a photoperiod of 12 hr light, 12 hr dark. The day that organisms were combined into the 60 test tubes was designated as day 0. A 1000-μl sample was removed from each tube for optical density analysis every other day, beginning on day 0. The optical densities of these samples were determined spectrometrically at 680 nm. On days 0, 6, and 12, a 250-μl sample was removed from each of the 1000-μl samples from rotifer-containing groups. Rotifers per 250-μl sample were counted with a dissecting microscope.
The optical densities of each of the 12 groups in the pesticide toxicity tests were averaged and plotted on a time plot (FIGS. 3 & 4). Standard deviation values and average algal growth rates were calculated for each group and day. T-tests were performed to determine the statistical significance of difference between relevant means. A linear regression model was used to compare the optical density averages of the “20M−R” group and the “C” control group. A linear regression of time against optical density in the control group of tubes was compared with a logarithmic regression model of time against optical density in the control flask. (FIG. 5).

Brachionus sp. rotifers [3] = test: Live rotifer count by microscopy in 30-μL samples (Example 1); type: in vivo; details: 13 days after inoculation
Protocol: One day prior to the general test period, the rotifer concentration was determined. The rotifer concentration of the bottle was estimated by counting rotifers in three trials of 30-μL samples with a Swift microscope at 1.25× magnification. Rotifer concentration was estimated again with the same procedure on the day of inoculation.
12 days after inoculation a 5-mL sample was extracted from each of the 15 jars containing rotifer solution. 24 hours after extraction, these samples were examined with microscopy. From each of the fifteen 5-mL samples, three 30-μL samples were pipetted onto glass slides and the rotifers were counted with a stereoscopic microscope at 2×-4× magnification.

rotifers [4] = details: at concentrations found in this study to be nontoxic to algae; literature findings; cited from earlier work
rotifers [5] = test: Rotifer-infested photobioreactor, methoprene with acetone (Example 3); type: in vivo; details: methoprene 30 mg/L or less with acetone between 1 and 27 ml/L; present-tense example
Protocol: Methoprene at a concentration of 30 mg/L or less is added to the algal solution in a rotifer-infested photobioreactor. Acetone at a concentration between 1 and 27 ml/L is also added as an adjuvant. At these concentrations, acetone may (while subjecting the algal crop to minimal harm) act as a surfactant, allowing methoprene to become more dissolved. […] Wait approximately 30 days before renewing the media so that methoprene can biodegrade sufficiently before disposal of water.

[6] = background statement; cited from earlier work
Brachionus sp. rotifers [7] = test: 12-day mason jar test, algal optical density at 680 nm, algae with rotifers (Example 1); type: in vivo
Protocol: as §1, §2, §3

humans or algae = details: background statement; cited from earlier work
Chlorella sp. [8] = test: Methoprene with acetone added to Chlorella, growth (Example 2); type: cell-based; details: methoprene 20 mg/L with acetone 2% v/v
Protocol: Methoprene at 20 mg/L with acetone at 2% v/v was added to Chlorella sp.

Brachionus plicatilis = details: Marcial et al. (2005), lower concentration of the project is 30 mg/L; cited from earlier work
rotofers = test: Alpha-pinene/propylene glycol in algal medium, rotifer control (Example 4); type: in vivo; details: approx. 1:1 (w/w) alpha-pinene and propylene glycol, equal to or less than 136 mg/L; present-tense example
Protocol: (§4) An approximate 1:1 (w/w) solution of alpha-pinene and propylene glycol is made. Alpha-pinene is the active agent, while propylene glycol is a surfactant. This mixture is added to the algal medium at a concentration equal to or less than 136 mg/L. Daphnia magna and rotofers are controlled in the aquaculture.

Daphnia magna = test: Alpha-pinene/propylene glycol in algal medium, Daphnia control (Example 4); type: in vivo; details: approx. 1:1 (w/w) alpha-pinene and propylene glycol, equal to or less than 136 mg/L; present-tense example
Protocol: as §4

COC(C)(C)CCC[C@H](C)C/C=C/C(C)=C/C(=O)OC(C)C (racemic) [methoprene]
Mean optical density ± one standard deviation (Chlorella sp. [1]; 5 days after inoculation): 0.84 ± 0.02 | Mean optical density ± one standard deviation (Chlorella sp. [1]; 6 days): 0.89 ± 0.01 | Mean optical density ± one standard deviation (Chlorella sp. [1]; 12 days): 0.93 ± 0.02 | average specific growth rate of algae (Chlorella sp. [1]; between 5 and 12 days after inoculation): 0.0065 log(AU)/day | mean optical density on day 12 compared with control group (Chlorella sp. [2]): not significantly different | inhibition of algal growth (Chlorella sp. [2]): Neither methoprene, resmethrin, nor acetone, when applied without rotifers, was found to inhibit algal growth | inhibition of algal growth (Chlorella sp. [2]; listed as Methoprene): not found to inhibit algal growth | mean optical density at day 12 compared with control (Chlorella sp. [2]; group 5M+R: 5 mg/L methoprene, rotifers): significantly lower | live rotifers in 30-μL samples (Brachionus sp. rotifers [3]; A+R+2M: 62 mg/L methoprene): zero | live rotifers in 30-μL samples (Brachionus sp. rotifers [3]; A+R+M: 30 mg/L methoprene, A+R group 8.7 per 30 μL): zero | harm to rotifers (rotifers [4]): significantly harmful to rotifers | effect on rotifers (rotifers [5]): eliminates rotifers | degradation in sunlight [6]: rapidly degrades in sunlight | Mean optical density ± one standard deviation (Brachionus sp. rotifers [7]; A+R+2M: 62 mg/L methoprene with rotifers, 5 days): 0.6 ± 0.2 | Mean optical density ± one standard deviation (Brachionus sp. rotifers [7]; A+R+2M: 62 mg/L methoprene with rotifers, 6 days): 0.7 ± 0.1 | Mean optical density ± one standard deviation (Brachionus sp. rotifers [7]; A+R+2M: 62 mg/L methoprene with rotifers, 12 days): 0.7 ± 0.2 | Mean optical density ± one standard deviation (Brachionus sp. rotifers [7]; A+R+M: 30 mg/L methoprene with rotifers, 5 days): 0.6 ± 0.2 | Mean optical density ± one standard deviation (Brachionus sp. rotifers [7]; A+R+M: 30 mg/L methoprene with rotifers, 6 days): 0.7 ± 0.2 | Mean optical density ± one standard deviation (Brachionus sp. rotifers [7]; A+R+M: 30 mg/L methoprene with rotifers, 12 days): 0.7 ± 0.2 | average specific growth rate of algae (Brachionus sp. rotifers [7]; A+R+M: 30 mg/L methoprene with rotifers, between 5 and 12 days after inoculation): 0.0078 log(AU)/day | average optical density (Brachionus sp. rotifers [7]; double methoprene concentration with rotifers (A+R+2M, 62 mg/L), 12 days): 0.71 AU | average optical density (Brachionus sp. rotifers [7]; methoprene with rotifers (A+R+M, 30 mg/L), 12 days, rotifers only 0.47 AU, control 0.96 AU): 0.69 AU | toxicity to humans or algae (humans or algae): practically non-toxic | growth reduction of Chlorella sp. (Chlorella sp. [8]): No growth reduction | 24-hr LC50 (Brachionus plicatilis): lower methoprene concentration utilized in this project

CC(C)=O [acetone]
mean optical density on day 12 compared with control group (Chlorella sp. [2]): not significantly different | inhibition of algal growth (Chlorella sp. [2]): Neither methoprene, resmethrin, nor acetone, when applied without rotifers, was found to inhibit algal growth; also recorded: not found to inhibit algal growth

CC1=CCC2CC1C2(C)C (stereo not drawn) [alpha-pinene]
control of rotifers in the aquaculture (rotofers): controlled | control of Daphnia magna in the aquaculture (Daphnia magna): controlled

CC(C)=CC1C(C(=O)OCc2coc(Cc3ccccc3)c2)C1(C)C (stereo not drawn) [resmethrin]
mean optical density on day 12 compared with control group (Chlorella sp. [2]): not significantly different | inhibition of algal growth (Chlorella sp. [2]): Neither methoprene, resmethrin, nor acetone, when applied without rotifers, was found to inhibit algal growth; also recorded: not found to inhibit algal growth | mean optical density at day 12 compared with control (Chlorella sp. [2]; group 2R−R as printed: 2.0 mg/L resmethrin, no rotifers): significantly lower | harm to rotifers (rotifers [4]): significantly harmful to rotifers
